Test results as given in patent publication US20120214760A1, “TREATMENT OF URINARY TRACT INFECTIONS WITH ANTIBACTERIAL AMINOGLYCOSIDE COMPOUNDS” (Achaogen, Inc., priority 2009, published 2012).
≈ marks a conversion by molar mass, not a printed value. Like-named read-outs stand apart in the source and are kept apart here.

What was measured:
[1] = test system: E. coli ATCC 25922 (AECO001); experiment: MIC, CLSI broth microdilution; assay type: cell-based; conditions: Escherichia coli
How it was run: (§1)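 CLSI M7-A7 broth microdilution in Mueller Hinton Broth using two-fold compound serial dilutions. Inoculum was prepared from the previous day's agar colonies at a final 5×10^5 CFU/mL. Plates were incubated at 35° C for 20 hours in ambient air.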

[2] = test system: P. aeruginosa ATCC 27853 (APAE001); experiment: MIC, CLSI broth microdilution; assay type: cell-based; conditions: for MIC: Pseudomonas aeruginosa
How it was run: as §1

[3] = ATCC25922, read-out: MIC AECO001, Table 1, AECO001 is ATCC25922
[4] = ATCC27853, read-out: MIC APAE001, Table 1, APAE001 is ATCC27853

Row | SMILES | MIC [1, 3] [µg/mL] | MIC [2, 4] [µg/mL] | further results
1 | CN[C@@H]1[C@@H](O)[C@@H](O[C@@H]2[C@@H](O)[C@H](O[C@H]3OC(CN)=CC[C@H]3NC(=O)C(O)CN)[C@@H](N)C[C@H]2NC(=O)[C@@H](O)CCN)OC[C@]1(C)O (stereo partly drawn) [Example 89, 2′-(3-Amino-2-hydroxy-propionyl)-1-(4-amino-2(S)-hydroxy-butyryl)-sisomicin] | < 1 | 1 to 16 (≈ 1.57 to 25.2 µM) | 
2 | CN[C@@H]1[C@@H](O)[C@@H](O[C@@H]2[C@@H](O)[C@H](O[C@H]3OC(CN)=CC[C@H]3NC(=O)C3CCCN3)[C@@H](N)C[C@H]2NC(=O)[C@@H](O)CCN)OC[C@]1(C)O (some centres unmarked) [Example 90] | < 1 | 1 to 16 (≈ 1.55 to 24.8 µM) | 
3 | CN[C@@H]1[C@@H](O)[C@@H](O[C@@H]2[C@@H](O)[C@H](O[C@H]3OC(CN)=CC[C@H]3NCCCN)[C@@H](N)C[C@H]2NC(=O)[C@@H](O)CCN)OC[C@]1(C)O [Example 91, 2′-(3-Amino-propyl)-1-(4-amino-2(S)-hydroxy-butyryl)-sisomicin] | < 1 | < 1 | 
4 | CN[C@@H]1[C@@H](O)[C@@H](O[C@@H]2[C@@H](O)[C@H](O[C@H]3OC(CN)=CC[C@H]3NC(=O)CC3CNCCO3)[C@@H](N)C[C@H]2NC(=O)[C@@H](O)CCN)OC[C@]1(C)O (stereo partly drawn) [Example 92, 2′-(Morpholin-2-yl-acetyl)-1-(4-amino-2(S)-hydroxy-butyryl)-sisomicin] | < 1 | > 16 | 
5 | CN[C@@H]1[C@@H](O)[C@@H](O[C@@H]2[C@@H](O)[C@H](O[C@H]3OC(CN)=CC[C@H]3NS(=O)(=O)CCN)[C@@H](N)C[C@H]2NC(=O)[C@@H](O)CCN)OC[C@]1(C)O [Example 93, 2′-(2-Amino-ethyl-sulfonamide)-1-(4-amino-2(S)-hydroxy-butyryl)-sisomicin] | < 1 | 1 to 16 (≈ 1.52 to 24.4 µM) | 
6 | CN[C@@H]1[C@@H](O)[C@@H](O[C@@H]2[C@@H](O)[C@H](O[C@H]3OC(CN)=CC[C@H]3NCC(C)(C)CN(C)C)[C@@H](N)C[C@H]2NC(=O)[C@@H](O)CCN)OC[C@]1(C)O [Example 94, 2′-(N,N-Dimethyl-2,2-dimethyl-3-amino-propyl)-1-(4-amino-2(S)-hydroxy-butyryl)-sisomicin] | 1 to 16 (≈ 1.51 to 24.2 µM) | > 16 | 
7 | CN[C@@H]1[C@@H](O)[C@@H](O[C@@H]2[C@@H](O)[C@H](O[C@H]3OC(CN)=CC[C@H]3NC[C@H](C)N)[C@@H](N)C[C@H]2NC(=O)[C@@H](O)CCN)OC[C@]1(C)O [Example 95, 2′-(2(S)-Amino-propyl)-1-(4-amino-2(S)-hydroxy-butyryl)-sisomicin] | < 1 | > 16 | 
8 | CN[C@@H]1[C@@H](O)[C@@H](O[C@@H]2[C@@H](O)[C@H](O[C@H]3OC(CN)=CC[C@H]3NC3CNC3)[C@@H](N)C[C@H]2NC(=O)[C@@H](O)CCN)OC[C@]1(C)O [Example 96, 2′-(Azetidin-3-yl)-1-(4-amino-2(S)-hydroxy-butyryl)-sisomicin] |  |  | MIC ([1]; ATCC25922, Table 2, read-out: MIC E. coli): < 1 µg/mL; MIC ([1]; Table 1, AECO001 is ATCC25922, read-out: MIC AECO001): < 1 µg/mL; MIC ([2]; ATCC27853, Table 2, read-out: MIC P. aeruginosa): 1 to 16 µg/mL (≈ 1.66 to 26.5 µM)
9 | CN[C@@H]1[C@@H](O)[C@@H](O[C@@H]2[C@@H](O)[C@H](O[C@H]3OC(CN)=CC[C@H]3NCC(N)CO)[C@@H](N)C[C@H]2NC(=O)[C@@H](O)CCN)OC[C@]1(C)O (stereo partly drawn) [Example 97, 2′-(2-Amino-propanol)-1-(4-amino-2(S)-hydroxy-butyryl)-sisomicin] | < 1 |  | MIC APAE001 ([2]; Table 1, APAE001 is ATCC27853): B (MIC's of greater than 1.0 μg/mL to 16.0 μg/mL = B)
10 | CN[C@@H]1[C@@H](O)[C@@H](O[C@@H]2[C@@H](O)[C@H](O[C@H]3OC(CN)=CC[C@H]3NCCO)[C@@H](N)C[C@H]2NC(=O)[C@@H](O)CCN)OC[C@]1(C)O [Example 98, 2′-(2-Hydroxy-ethyl)-1-(4-amino-2(S)-hydroxy-butyryl)-sisomicin] | 1 to 16 (≈ 1.69 to 27 µM) | 1 to 16 (≈ 1.69 to 27 µM) | 
11 | CN[C@@H]1[C@@H](O)[C@@H](O[C@@H]2[C@@H](O)[C@H](O[C@H]3OC(CN)=CC[C@H]3NC(=O)C(N)CCCN)[C@@H](N)C[C@H]2NC(=O)[C@@H](O)CCN)OC[C@]1(C)O (stereo partly drawn) [Example 99, 2′-(2,5-Diamino-pentoyl)-1-(4-amino-2(S)-hydroxy-butyryl)-sisomicin] | 1 to 16 (≈ 1.51 to 24.1 µM) | 1 to 16 (≈ 1.51 to 24.1 µM) | 
